Results: patent US9439909B2, “Compositions and methods for sensitizing a neoplastic cell to radiation” (The Broad Institute, Inc., priority 2013, dated 2016)

How the values were obtained:
[1] = Cellular viability of LC-1/SQSF cells after incubation with PI3K inhibitors; settings: human, LC-1/SQSF cells stably expressing hNQO1-ARE-luc
Procedure: (§5) To test this, LC-1/SQSF cells were generated that stably express hNQO1-ARE-luc, containing cis-acting antioxidant response regulatory elements in the 5′-flanking region of NAD(P)H:quinone oxidoreductase (NQO1) (19), a gene induced by NRF2. Luciferase activity was measured in LC-1/SQSF, hNQO1-ARE-luc cells after incubation with LY 294002, NVP-BKM120, or TGX-221. […] Cellular viability was measured after incubation with LY 294002, NVP-BKM120, or TGX-221.

[2] = test system: NRF2 protein; experiment: Immunoblot of NRF2 protein level in LC-1/SQSF cells; assay type: cell-based, human; settings: for expression of endogenous mutant NRF2 compared with control shNTC: Doxycycline induction 24 hours
Procedure: (§1) Anti-NRF2 antibody (ab31163) was from Abcam (Cambridge, Mass.) (17). NVP-BKM120 and TGX-221 was from Selleck (Houston, Tex.). LY 294002 was from Cell Signaling Technology (Beverly, Mass.).
(§2) Construction of the retroviral expression vector of short hairpin RNA (shRNA) was carried out as described (18). The shRNA-targeted sequences were as follows: NRF2-1 shRNA, […] (SEQ ID NO: 1); NRF2-2 shRNA, […] (SEQ ID NO: 2). The control vector contains nontargeting shRNA sequence. The entry vectors were recombined with pLKO-Tet-ON-puro by LR reactions (Invitrogen, Carlsbad, Calif.), in accordance with the manufacturer's instructions. After infection (multiplicity of infection >1), cells were selected and maintained in the presence of 1 μg/ml puromycin.

[3] = test system: HCC15 cells; experiment: Clonogenic survival, HCC15 cells; assay type: cell-based, human; settings: HCC15 (KEAP1 mutant), drug 24 hours before radiation
Procedure: (§3) Lung SqCC cell lines from the Cancer Cell Line Encyclopedia (CCLE) were authenticated per CCLE protocol (14) and grown in recommended media supplemented with 10% fetal bovine serum (Benchmark, Calif.) and 100 U/mL Penicillin, 100 μg/mL of Streptomycin, and 292 μg/mL L-Glutamine (Corning, N.Y.). All cultures were maintained at 37° C. in a humidified 5% CO2 atmosphere and tested to ensure absence of Mycoplasma. Plates were treated with 0 Gy (no radiation) or with 1-10 Gy of γ-radiation delivered at 0.91 Gy/min with a ^137Cs source using a GammaCell 40 Exactor (Best Theratronics; Ontario, Canada).
(§4) Cells were plated at appropriate dilutions, irradiated, and incubated for 10-14 days for colony formation. For chemical radiosensitization measurements, drug was added 24 hours prior to irradiation. Colonies were fixed in a solution of acetic acid and methanol 1:3 (v/v) and stained with 0.5% (w/v) crystal violet as previously described (15). A colony was defined to consist of 50 cells or greater. Colonies were counted digitally using ImageJ software as described (16). Integration of survival as a function of dose, or area under the curve, was calculated using Prism, GraphPad Software (La Jolla, Calif.).

[4] = test system: NRF2 activity; experiment: hNQO1-ARE-luc luciferase reporter assay in LC-1/SQSF cells; assay type: cell-based, human; settings: 24 hours
Procedure: LC-1/SQSF, hNQO1-ARE-luc cells were produced as follows. hQR41-ARE sequence (19) and firefly luciferase-PEST sequence (Promega, WI) was cloned into plenti6/BLOCK-iT-DEST lentivirus backbone (Invitrogen, NY) at the restriction sites of NcoI and Hind III. The engineered region was sequence verified and matched 100% of the expected sequences. The plasmid was stably infected to the LC-1/SQSF cell line, selected and maintained in 5 μg/ml Blasticidin in the recommended media.

[5] = test system: LC-1/SQSF cells; experiment: Clonogenic survival, LC-1/SQSF cells; assay type: cell-based, human
Procedure: as §3, §4

[6] = test system: RERF-LC-AI cells; experiment: Clonogenic survival, RERF-LC-AI cells; assay type: cell-based, human
Procedure: as §3, §4

[7] = test system: LC-1/SQSF cells; experiment: Cellular viability of LC-1/SQSF cells after incubation with PI3K inhibitors; settings: LC-1/SQSF, 48 hours
Procedure: as §5

[8] = test system: SQ-1 cells; experiment: Clonogenic survival, SQ-1 cells; assay type: cell-based, human; settings: SQ-1 (NFE2L2 and KEAP1 wild type), drug 24 hours before radiation
Procedure: as §3, §4

[9] = test system: A549 cells; experiment: Clonogenic survival, A549 cells; assay type: cell-based, human; settings: A549, drug 24 hours before radiation
Procedure: as §3, §4

[10] = test system: LC-1/SQSF cells
Procedure: as §5

[11] = test system: NRF2 protein; experiment: Immunoblot of NRF2 protein level in RERF-LC-AI cells; assay type: cell-based, human; settings: for NRF2 protein level / expression of endogenous NRF2 compared with control shNTC: RERF-LC-AI, Doxycycline induction 24 hours
Procedure: as §1, §2

Compound: O=c1cc(N2CCOCC2)oc2c(-c3ccccc3)cccc12 [LY 294002]
- viability at 24 h [1]: > 90%

Compound: Nc1cc(C(F)(F)F)c(-c2cc(N3CCOCC3)nc(N3CCOCC3)n2)cn1 [NVP-BKM120, 5-(2,6-dimorpholinopyrimidin-4-yl)-4-(trifluoromethyl)pyridin-2-amine]
- decrement in NRF2 protein level ([2]; 24 hours): significant decrement in NRF2 protein level
- clonogenic survival with drug and radiation compared to control (0 Gy) [3]: synergistic decrement in clonogenic survival
- decrement in NRF2 activity (luciferase activity) [4]: significant decrement in NRF2 activity
- clonogenic survival with drug and radiation compared to control (0 Gy) ([5]; LC-1/SQSF (NFE2L2 mutant), drug 24 hours before radiation): synergistic decrement in clonogenic survival
- synergy between drug and radiation, clonogenic survival ([6]; RERF-LC-AI (NFE2L2 and KEAP1 wild type), drug 24 hours before radiation): significantly less synergy
- decrement in cellular viability [7]: mirrored the effect on NRF2 activity
- viability at 24 h [1]: > 90%
- synergy between drug and radiation, clonogenic survival [8]: significantly less synergy
- clonogenic survival with drug and radiation compared to control (0 Gy) [9]: synergistic decrement in clonogenic survival

Compound: Cc1cc(C(C)Nc2ccccc2)c2nc(N3CCOCC3)cc(=O)n2c1 (stereo not drawn) [TGX-221]
- viability [10]: > 90%
- decrement in cellular viability [7]: mirrored the effect on NRF2 activity

Compound: CC(C)(C)c1cc(O)ccc1O [tBHQ, tert-Butylhydroquinone]
- NRF2 stabilization (NRF2 protein level) ([11]; RERF-LC-AI cells, -/+ tBHQ): NRF2 stabilization

Compound: shNRF2-1: lentiviral-inducible NRF2-targeted shRNA, target sequence AGAGCAAGATTTAGATCATTT (SEQ ID NO: 1) (the letters are possibly those of the target site)
- expression of endogenous mutant NRF2 compared with control shNTC [2]: significantly reduced
- sensitivity to radiation versus control shNTC cells, clonogenic survival ([5]; LC-1/SQSF, 2, 4, 6 Gy after Doxycycline 24 hours): more sensitive to radiation
- NRF2 protein level / expression of endogenous NRF2 compared with control shNTC [11]: minimal affect

Compound: shNRF2-2: lentiviral-inducible NRF2-targeted shRNA, target sequence GCTCCTACTGTGATGTGAAAT (SEQ ID NO: 2) (the letters are possibly those of the target site)
- expression of endogenous mutant NRF2 compared with control shNTC [2]: significantly reduced
- clonogenic capacity after lentiviral-induction ([5]; LC-1/SQSF, no radiation): significantly diminished clonogenic capacity
- radiation sensitivity, clonogenic survival ([6]; RERF-LC-AI, 2, 4, 6 Gy after Doxycycline 24 hours): did not result in any observable decrease
- clonogenic capacity ([6]; RERF-LC-AI, no radiation): did not result in any observable decrease
- NRF2 protein level / expression of endogenous NRF2 compared with control shNTC [11]: significantly reduced
